In PubChem BioAssay AID1745844 (Carcinogenic Potency Database (CPDB), 2022):
Calls of active or inactive are those of the source. No rule for the calls is given here.

System: rodent lifetime carcinogenesis bioassay, tumor incidence TD50
Assay: carcinogenic potency in animals, long-term in vivo studies, CPDB compilation (AID 1745844)
[1] = rat, strain Fischer 344, males, by gavage, site: liver, lesion: hepatocellular carcinoma, dosed 35 weeks, study length 120 weeks
[2] = rat, strain Fischer 344, males, by gavage, site: liver, lesion: neoplastic nodule, dosed 35 weeks, study length 120 weeks
[3] = rat, strain Fischer 344, males, by gavage, site: liver, lesion: several types, types named in the paper, dosed 35 weeks, study length 120 weeks

## O=NN(CCO)C(=O)NCCCl
rat, strain Fischer 344, females, by gavage, site: all sites, lesion: mononuclear-cell leukemia, dosed 40 weeks, study length 115 weeks
  TD50: 0.76 mg/kg/day
rat, strain Fischer 344, females, by gavage, site: kidney tubule, lesion: several types, types named in the paper, dosed 40 weeks, study length 115 weeks
  TD50: 4.38 mg/kg/day
rat, strain Fischer 344, females, by gavage, site: liver, lesion: cholangiocarcinoma, dosed 40 weeks, study length 115 weeks
  TD50: 4.38 mg/kg/day
rat, strain Fischer 344, females, by gavage, site: liver, lesion: hepatocellular carcinoma, dosed 40 weeks, study length 115 weeks
  TD50: 0.653 mg/kg/day
rat, strain Fischer 344, females, by gavage, site: liver, lesion: neoplastic nodule, dosed 40 weeks, study length 115 weeks
  TD50: 0.564 mg/kg/day
rat, strain Fischer 344, females, by gavage, site: liver, lesion: several types, types named in the paper, dosed 40 weeks, study length 115 weeks
  TD50: 0.488 mg/kg/day
rat, strain Fischer 344, females, in drinking water, site: liver, lesion: one or several types, types not named, dosed 30 weeks, study length 104 weeks
  TD50: 1.19 mg/kg/day
rat, strain Fischer 344, females, in drinking water, site: uterus, lesion: one or several types, types not named, dosed 30 weeks, study length 104 weeks
  TD50: 0.669 mg/kg/day
rat, strain Fischer 344, males, by gavage, site: kidney tubule, lesion: several types, types named in the paper, dosed 35 weeks, study length 120 weeks
  TD50: 0.663 mg/kg/day
rat, strain Fischer 344, males, by gavage, site: liver, lesion: cholangiocarcinoma, dosed 35 weeks, study length 120 weeks
  TD50: 0.926 mg/kg/day
[1]
  TD50: 0.233 mg/kg/day
[2]
  TD50: 1.19 mg/kg/day
[3]
  TD50: 0.15 mg/kg/day
rat, strain Fischer 344, males, in drinking water, site: liver, lesion: one or several types, types not named, dosed 30 weeks, study length 104 weeks
  TD50: 0.59 mg/kg/day

## NC(=O)Cc1cccc2ccccc12
mouse, strain B6AKF1, females, oral dosing, site: any site (literature study), lesion: several types, types named in the paper, dosed 76 weeks, study length 76 weeks
  TD50: 956 mg/kg/day (inactive)
mouse, strain B6AKF1, females, oral dosing, site: liver, lesion: hepatoma, dosed 76 weeks, study length 76 weeks
  carcinogen call: negative (inactive)
mouse, strain B6AKF1, females, oral dosing, site: lung, lesion: adenoma, dosed 76 weeks, study length 76 weeks
  carcinogen call: negative (inactive)
mouse, strain B6AKF1, males, oral dosing, site: any site (literature study), lesion: several types, types named in the paper, dosed 76 weeks, study length 76 weeks
  carcinogen call: negative (inactive)
mouse, strain B6AKF1, males, oral dosing, site: liver, lesion: hepatoma, dosed 76 weeks, study length 76 weeks
  carcinogen call: negative (inactive)
mouse, strain B6AKF1, males, oral dosing, site: lung, lesion: adenoma, dosed 76 weeks, study length 76 weeks
  carcinogen call: negative (inactive)
mouse, strain B6C3F1, females, oral dosing, site: any site (literature study), lesion: several types, types named in the paper, dosed 76 weeks, study length 76 weeks
  TD50: 213 mg/kg/day (inactive)
mouse, strain B6C3F1, females, oral dosing, site: liver, lesion: hepatoma, dosed 76 weeks, study length 76 weeks
  TD50: 956 mg/kg/day (inactive)
mouse, strain B6C3F1, females, oral dosing, site: lung, lesion: adenoma, dosed 76 weeks, study length 76 weeks
  TD50: 461 mg/kg/day (inactive)
mouse, strain B6C3F1, males, oral dosing, site: any site (literature study), lesion: several types, types named in the paper, dosed 76 weeks, study length 76 weeks
  TD50: 141 mg/kg/day (inactive)
mouse, strain B6C3F1, males, oral dosing, site: liver, lesion: hepatoma, dosed 76 weeks, study length 76 weeks
  TD50: 316 mg/kg/day (inactive)
mouse, strain B6C3F1, males, oral dosing, site: lung, lesion: adenoma, dosed 76 weeks, study length 76 weeks
  TD50: 1010 mg/kg/day (inactive)

## CCCCN(N=O)C(=N)N[N+](=O)[O-]
rat, strain Wistar, males, in drinking water, site: stomach, glandular, lesion: one or several types, types not named, dosed 52 weeks, study length 78 weeks
  carcinogen call: negative (inactive)

## C=CCN(CCO)N=O
rat, strain Fischer 344, females, in drinking water, site: liver, lesion: hepatocellular carcinoma, dosed 50 weeks, study length 65 weeks
  TD50: 4.12 mg/kg/day
rat, strain Fischer 344, females, in drinking water, site: nasal cavity, lesion: several types, types named in the paper, dosed 50 weeks, study length 65 weeks
  TD50: 0.491 mg/kg/day

## CC(C)(C)c1cc(CO)cc(C(C)(C)C)c1O
rat, strain NZBW (hooded black and white strain), females, in feed, site: any site (literature study), lesion: several types, types named in the paper, dosed 104 weeks, study length 104 weeks
  TD50: 3710 mg/kg/day (inactive)
rat, strain NZBW (hooded black and white strain), females, in feed, site: mammary gland, lesion: fibroadenoma, dosed 104 weeks, study length 104 weeks
  TD50: 3710 mg/kg/day (inactive)
rat, strain NZBW (hooded black and white strain), males, in feed, site: any site (literature study), lesion: one or several types, types not named, dosed 104 weeks, study length 104 weeks
  carcinogen call: negative (inactive)

## CC(O)CN(N=O)C(=O)NCCCl (stereo not given)
rat, strain Fischer 344, females, by gavage, site: all sites, lesion: mononuclear-cell leukemia, dosed 40 weeks, study length 95 weeks
  TD50: 0.962 mg/kg/day
rat, strain Fischer 344, females, by gavage, site: liver, lesion: hepatocellular carcinoma, dosed 40 weeks, study length 95 weeks
  TD50: 8.81 mg/kg/day
rat, strain Fischer 344, females, by gavage, site: liver, lesion: neoplastic nodule, dosed 40 weeks, study length 95 weeks
  TD50: 0.885 mg/kg/day
rat, strain Fischer 344, females, by gavage, site: liver, lesion: several types, types named in the paper, dosed 40 weeks, study length 95 weeks
  TD50: 0.885 mg/kg/day
[1]
  TD50: 2.71 mg/kg/day
[2]
  TD50: 1.17 mg/kg/day
[3]
  TD50: 0.861 mg/kg/day
rat, strain Fischer 344, males, by gavage, site: lung, lesion: alveolar/bronchiolar tumor, dosed 35 weeks, study length 120 weeks
  TD50: 2.39 mg/kg/day
